Key:
Assay in all cases: B2 Post-Emergence Efficacy - Test 2
Format in all cases: in vivo
Poa annua (POAAN) = conditions: 15 days after application, 0-100 scale
Description: (§1) Seeds of a variety of test species (see Table B1) were sown in standard soil in pots. After cultivation for 12 days (post-emergence) under controlled conditions in a glasshouse (at 24/18° C. or 20/16° C., at day/night; 16 hours light; 65% humidity), the plants were sprayed with an aqueous spray solution derived from the formulation of the technical active ingredient dissolved in IF50 (see Table B2 for composition) and adjuvant (Genapol X080) was added to the spray solution at a rate of 0.2% v/v.
(§2) After application, the test plants were grown in a glasshouse under controlled conditions (as above) and watered twice daily. Herbicidal activity was evaluated 15 days after application on a 0-100 scale. The results, where 0=no damage to test plant and 100=total kill of test plant are shown below in Tables 8 to 11.

[1] = tested on: Echinochloa crus galli (ECHCG); conditions: 15 days after application, 0=no damage, 100=total kill
Description: as §1, §2

Sida spinosa (SIDSP) = conditions: 15 days after application, 0-100 scale
Description: as §1, §2

Sorghum bicolour (SORVU) = conditions: 15 days after application, 0=no damage, 100=total kill
Description: as §1, §2

Lolium perenne (LOLPE) = conditions: 15 days after application, 0-100 scale
Description: as §1, §2

[2] = tested on: Euphorbia hetrophylla (EPHHL); conditions: 15 days after application, 0-100 scale
Description: as §1, §2

[3] = tested on: Abutilon theophrasti (ABUTH); conditions: 15 days after application, 0-100 scale
Description: as §1, §2

Stellaria media (STEME) = conditions: 15 days after application, 0-100 scale
Description: as §1, §2

[4] = tested on: Chenopodium album (CHEAL); conditions: 15 days after application, 0-100 scale
Description: as §1, §2

Zea mays (ZEAMX) = conditions: 15 days after application; for Herbicidal activity ZEAMX: 0-100 scale; for Herbicidal activity on a 0-100 scale, ZEAMX: 0=no damage, 100=total kill
Description: as §1, §2

[5] = tested on: Alopecurus myosuroides (ALOMY); conditions: 15 days after application, 0-100 scale
Description: as §1, §2

Bromus tectorum (BROTE) = conditions: 15 days after application, 0-100 scale
Description: as §1, §2

[6] = tested on: Panicum miliaceum (PANMI); conditions: 15 days after application, 0=no damage, 100=total kill
Description: as §1, §2

Orysa sativa (ORYSA) = conditions: 15 days after application; for Herbicidal activity ORYSA: 0-100 scale; for Herbicidal activity on a 0-100 scale, ORYSA: 0=no damage, 100=total kill
Description: as §1, §2

[7] = tested on: Xanthium strumarium (XANST); conditions: 15 days after application, 0-100 scale
Description: as §1, §2

Brassica napus (BRSNN) = conditions: 15 days after application, 0-100 scale
Description: as §1, §2

Glycine max (GLXMA) = conditions: 15 days after application; for Herbicidal activity GLXMA: 0-100 scale; for Herbicidal activity on a 0-100 scale, GLXMA: 0=no damage, 100=total kill
Description: as §1, §2

## Cc1nn(C)c(=O)c(-c2c(F)ccc(Cl)c2CCc2ccc(F)cc2)c1O [Compound 1.048, 4-[3-chloro-6-fluoro-2-[2-(4-fluorophenyl)ethyl]phenyl]-5-hydroxy-2,6-dimethyl-pyridazin-3-one]
Poa annua (POAAN); 15 g/Ha
  Herbicidal activity POAAN: 30
Poa annua (POAAN); 30 g/Ha
  Herbicidal activity POAAN: 30
Poa annua (POAAN); 60 g/Ha
  Herbicidal activity POAAN: 80
Poa annua (POAAN); 125 g/Ha
  Herbicidal activity POAAN: 80
Poa annua (POAAN); 250 g/Ha
  Herbicidal activity POAAN: 90
Poa annua (POAAN); 500 g/Ha
  Herbicidal activity POAAN: 90
[1]; 15 g/Ha
  Herbicidal activity on a 0-100 scale, ECHCG: 60
[1]; 30 g/Ha
  Herbicidal activity on a 0-100 scale, ECHCG: 80
[1]; 60 g/Ha
  Herbicidal activity on a 0-100 scale, ECHCG: 80
[1]; 125 g/Ha
  Herbicidal activity on a 0-100 scale, ECHCG: 90
[1]; 250 g/Ha
  Herbicidal activity on a 0-100 scale, ECHCG: 90
[1]; 500 g/Ha
  Herbicidal activity on a 0-100 scale, ECHCG: 100
Sida spinosa (SIDSP); 15 g/Ha
  Herbicidal activity SIDSP: 80
Sida spinosa (SIDSP); 30 g/Ha
  Herbicidal activity SIDSP: 80
Sida spinosa (SIDSP); 60 g/Ha
  Herbicidal activity SIDSP: 80
Sida spinosa (SIDSP); 125 g/Ha
  Herbicidal activity SIDSP: 90
Sida spinosa (SIDSP); 250 g/Ha
  Herbicidal activity SIDSP: 90
Sida spinosa (SIDSP); 500 g/Ha
  Herbicidal activity SIDSP: 90
Sorghum bicolour (SORVU); 15 g/Ha
  Herbicidal activity on a 0-100 scale, SORVU: 0
Sorghum bicolour (SORVU); 30 g/Ha
  Herbicidal activity on a 0-100 scale, SORVU: 30
Sorghum bicolour (SORVU); 60 g/Ha
  Herbicidal activity on a 0-100 scale, SORVU: 70
Sorghum bicolour (SORVU); 125 g/Ha
  Herbicidal activity on a 0-100 scale, SORVU: 70
Sorghum bicolour (SORVU); 250 g/Ha
  Herbicidal activity on a 0-100 scale, SORVU: 80
Sorghum bicolour (SORVU); 500 g/Ha
  Herbicidal activity on a 0-100 scale, SORVU: 90
Lolium perenne (LOLPE); 15 g/Ha
  Herbicidal activity LOLPE: 20
Lolium perenne (LOLPE); 30 g/Ha
  Herbicidal activity LOLPE: 40
Lolium perenne (LOLPE); 60 g/Ha
  Herbicidal activity LOLPE: 90
Lolium perenne (LOLPE); 125 g/Ha
  Herbicidal activity LOLPE: 90
Lolium perenne (LOLPE); 250 g/Ha
  Herbicidal activity LOLPE: 90
Lolium perenne (LOLPE); 500 g/Ha
  Herbicidal activity LOLPE: 90
[2]; 15 g/Ha
  Herbicidal activity EPHHL: 50
[2]; 30 g/Ha
  Herbicidal activity EPHHL: 70
[2]; 60 g/Ha
  Herbicidal activity EPHHL: 90
[2]; 125 g/Ha
  Herbicidal activity EPHHL: 90
[2]; 250 g/Ha
  Herbicidal activity EPHHL: 100
[2]; 500 g/Ha
  Herbicidal activity EPHHL: 100
[3]; 15 g/Ha
  Herbicidal activity ABUTH: 60
[3]; 30 g/Ha
  Herbicidal activity ABUTH: 80
[3]; 60 g/Ha
  Herbicidal activity ABUTH: 90
[3]; 125 g/Ha
  Herbicidal activity ABUTH: 90
[3]; 250 g/Ha
  Herbicidal activity ABUTH: 90
[3]; 500 g/Ha
  Herbicidal activity ABUTH: 100
Stellaria media (STEME); 15 g/Ha
  Herbicidal activity STEME: 90
Stellaria media (STEME); 30 g/Ha
  Herbicidal activity STEME: 90
Stellaria media (STEME); 60 g/Ha
  Herbicidal activity STEME: 90
Stellaria media (STEME); 125 g/Ha
  Herbicidal activity STEME: 100
Stellaria media (STEME); 250 g/Ha
  Herbicidal activity STEME: 100
Stellaria media (STEME); 500 g/Ha
  Herbicidal activity STEME: 100
[4]; 125 g/Ha
  Herbicidal activity CHEAL: 70
[4]; 250 g/Ha
  Herbicidal activity CHEAL: 90
[4]; 500 g/Ha
  Herbicidal activity CHEAL: 100
Zea mays (ZEAMX); 15 g/Ha
  Herbicidal activity ZEAMX: 0
  Herbicidal activity on a 0-100 scale, ZEAMX: 0
Zea mays (ZEAMX); 30 g/Ha
  Herbicidal activity ZEAMX: 10
  Herbicidal activity on a 0-100 scale, ZEAMX: 10
Zea mays (ZEAMX); 60 g/Ha
  Herbicidal activity ZEAMX: 50
  Herbicidal activity on a 0-100 scale, ZEAMX: 50
Zea mays (ZEAMX); 125 g/Ha
  Herbicidal activity ZEAMX: 50
  Herbicidal activity on a 0-100 scale, ZEAMX: 50
Zea mays (ZEAMX); 250 g/Ha
  Herbicidal activity ZEAMX: 70
  Herbicidal activity on a 0-100 scale, ZEAMX: 70
Zea mays (ZEAMX); 500 g/Ha
  Herbicidal activity ZEAMX: 100
  Herbicidal activity on a 0-100 scale, ZEAMX: 100
[5]; 15 g/Ha
  Herbicidal activity ALOMY: 20
[5]; 30 g/Ha
  Herbicidal activity ALOMY: 30
[5]; 60 g/Ha
  Herbicidal activity ALOMY: 70
[5]; 125 g/Ha
  Herbicidal activity ALOMY: 80
[5]; 250 g/Ha
  Herbicidal activity ALOMY: 80
[5]; 500 g/Ha
  Herbicidal activity ALOMY: 90
Bromus tectorum (BROTE); 15 g/Ha
  Herbicidal activity BROTE: 0
Bromus tectorum (BROTE); 30 g/Ha
  Herbicidal activity BROTE: 10
Bromus tectorum (BROTE); 60 g/Ha
  Herbicidal activity BROTE: 20
Bromus tectorum (BROTE); 125 g/Ha
  Herbicidal activity BROTE: 50
Bromus tectorum (BROTE); 250 g/Ha
  Herbicidal activity BROTE: 60
Bromus tectorum (BROTE); 500 g/Ha
  Herbicidal activity BROTE: 70
[6]; 15 g/Ha
  Herbicidal activity on a 0-100 scale, PANMI: 0
[6]; 30 g/Ha
  Herbicidal activity on a 0-100 scale, PANMI: 20
[6]; 60 g/Ha
  Herbicidal activity on a 0-100 scale, PANMI: 30
[6]; 125 g/Ha
  Herbicidal activity on a 0-100 scale, PANMI: 80
[6]; 250 g/Ha
  Herbicidal activity on a 0-100 scale, PANMI: 100
[6]; 500 g/Ha
  Herbicidal activity on a 0-100 scale, PANMI: 100
Orysa sativa (ORYSA); 15 g/Ha
  Herbicidal activity ORYSA: 0
  Herbicidal activity on a 0-100 scale, ORYSA: 0
Orysa sativa (ORYSA); 30 g/Ha
  Herbicidal activity ORYSA: 0
  Herbicidal activity on a 0-100 scale, ORYSA: 0
Orysa sativa (ORYSA); 60 g/Ha
  Herbicidal activity ORYSA: 0
  Herbicidal activity on a 0-100 scale, ORYSA: 0
Orysa sativa (ORYSA); 125 g/Ha
  Herbicidal activity ORYSA: 0
  Herbicidal activity on a 0-100 scale, ORYSA: 0
Orysa sativa (ORYSA); 250 g/Ha
  Herbicidal activity ORYSA: 10
  Herbicidal activity on a 0-100 scale, ORYSA: 10
Orysa sativa (ORYSA); 500 g/Ha
  Herbicidal activity ORYSA: 30
  Herbicidal activity on a 0-100 scale, ORYSA: 30
[7]; 60 g/Ha
  Herbicidal activity XANST: 90
[7]; 125 g/Ha
  Herbicidal activity XANST: 90
[7]; 250 g/Ha
  Herbicidal activity XANST: 90
[7]; 500 g/Ha
  Herbicidal activity XANST: 100
Brassica napus (BRSNN); 15 g/Ha
  Herbicidal activity BRSNN: 90
Brassica napus (BRSNN); 30 g/Ha
  Herbicidal activity BRSNN: 90
Brassica napus (BRSNN); 60 g/Ha
  Herbicidal activity BRSNN: 90
Brassica napus (BRSNN); 125 g/Ha
  Herbicidal activity BRSNN: 90
Brassica napus (BRSNN); 250 g/Ha
  Herbicidal activity BRSNN: 90
Brassica napus (BRSNN); 500 g/Ha
  Herbicidal activity BRSNN: 90
Glycine max (GLXMA); 15 g/Ha
  Herbicidal activity GLXMA: 70
  Herbicidal activity on a 0-100 scale, GLXMA: 70
Glycine max (GLXMA); 30 g/Ha
  Herbicidal activity GLXMA: 80
  Herbicidal activity on a 0-100 scale, GLXMA: 80
Glycine max (GLXMA); 60 g/Ha
  Herbicidal activity GLXMA: 90
  Herbicidal activity on a 0-100 scale, GLXMA: 90
Glycine max (GLXMA); 125 g/Ha
  Herbicidal activity GLXMA: 90
  Herbicidal activity on a 0-100 scale, GLXMA: 90
Glycine max (GLXMA); 250 g/Ha
  Herbicidal activity GLXMA: 90
  Herbicidal activity on a 0-100 scale, GLXMA: 90
Glycine max (GLXMA); 500 g/Ha
  Herbicidal activity GLXMA: 100
  Herbicidal activity on a 0-100 scale, GLXMA: 100

Source: patent publication US20230301300A1, “HERBICIDAL COMPOSITIONS” (SYNGENTA CROP PROTECTION AG, priority 2020, published 2023)
